Data set [1] relates to L6. In words: Cytotoxicity against rat L6 cells after 72 hrs by Alamar blue assay. The format is cell-based. The settings on record: L6, 72 h. (The colour change of resazurin is a common sign of viable cells or microbes.)
The test system of data set [2] is Plasmodium falciparum. The experiment in a line: Antiplasmodial activity against chloroquine-sensitive erythrocytic stage Plasmodium falciparum NF54 assessed as [3H]hypoxanthine incorporation after 48 to 72 hrs by Betaplate liquid scintillation counting. The format is functional, organism-based.
Data set [3] in a line: Selectivity index, ratio of IC50 for rat L6 cells to IC50 for erythrocytic stages of Plasmodium falciparum NF54. The format is toxicity, cell-based. Conditions: read-out: Ratio IC50.

Regarding `CC(C)(O)[C@H](O)[C@H]1C[C@@H]([C@@H]2CC=C3[C@]4(C)[C@H](O)C[C@H]5C(C)(C)C(=O)C=C[C@]5(C)[C@H]4CC[C@]32C)C(=O)O1`, the IC50 (as a rule, the concentration at which inhibition is half-maximal) is 32.3 µM in data set [1] (read-out: IC50) and 1.3 µM in data set [2]. In addition, the selectivity ratio in data set [3] amounted to 25.2.
Regarding `CC(=O)O[C@@H]1C[C@H]2C(C)(C)[C@H](O)CC[C@]2(C)[C@H]2CC[C@]3(C)C(=CC[C@H]3[C@@H]3C[C@H]([C@H](O)C(C)(C)O)OC3=O)[C@@]21C`, the IC50 in data set [1] (read-out: IC50) is 42.4 µM; in data set [2], 2 µM. The selectivity ratio in data set [3] worked out at 21.
Turning to `CC(=O)O[C@@H]1CC[C@]2(C)[C@H]3CC[C@]4(C)C(=CC[C@H]4[C@@H]4C[C@H]([C@H](O)C(C)(C)O)OC4=O)[C@]3(C)[C@H](OC(C)=O)C[C@H]2C1(C)C`, the IC50 in data set [1] (read-out: IC50) amounted to 11 µM; in data set [2] it was 0.87 µM. In data set [3], the selectivity ratio amounted to 12.7.
For `C=C(C)[C@@H]1CC=C2[C@H](CC[C@@]3(C)[C@H]([C@@H](C)CC(O)C(O)C(C)(C)O)CC[C@]23C)[C@@]1(C)CCC(=O)O` (stereo partly drawn), the IC50 was 56.1 µM in data set [1] (read-out: IC50) and 19.3 µM in data set [2]. The selectivity ratio in data set [3] came to 2.9.
For the compound `CO[C@@H]1O[C@@H]([C@H](O)C(C)(O)CO)C[C@H]1[C@@H]1CC[C@]23C[C@]12CC[C@@H]1[C@@]2(C)CC[C@H](OC(=O)C=C(C)C)C(C)(C)[C@@H]2C[C@@H](O)[C@]13C` (stereo partly drawn), the results for the IC50 in data set [1] (read-out: IC50) and in data set [2] were 11.9 µM and 1.3 µM, respectively. The selectivity ratio in data set [3] came out at 9.
For the compound `CC(=O)O[C@@H]1C[C@H]2C(C)(C)C(=O)C=C[C@]2(C)[C@H]2CC[C@]3(C)C(=CC[C@H]3[C@@H]3C[C@H]([C@H](O)C(C)(C)O)OC3=O)[C@@]21C`, the figures for the IC50 in data set [1] (read-out: IC50) and in data set [2] were 70.6 µM and 0.67 µM, respectively. Further, the selectivity ratio in data set [3] is 105.
`CC(C)=CC(=O)O[C@H]1CC[C@]2(C)[C@H]3CC[C@]45C[C@]4(CC[C@H]5[C@@H]4C[C@H]([C@@H]5O[C@@]5(C)CO)O[C@H]4O)[C@]3(C)[C@H](O)C[C@H]2C1(C)C`: the IC50 in data set [1] (read-out: IC50) stood at 8.6 µM; in data set [2] it was 1.3 µM. Also, the selectivity ratio in data set [3] was found to be 6.8.
Consider `CC(C)=CC(=O)O[C@H]1CC[C@]2(C)[C@H]3CC[C@]45C[C@]4(CC[C@H]5[C@@H]4C[C@H]([C@H](O)C(C)(C)O)O[C@H]4O)[C@]3(C)[C@H](O)C[C@H]2C1(C)C`, for which the values for the IC50 in data set [1] (read-out: IC50) and in data set [2] were 6.5 µM and 1.4 µM, respectively. Besides, in data set [3], the selectivity ratio came to 4.4.
Regarding `CC(=O)O[C@@H]1C[C@H]2C(C)(C)C(=O)C=C[C@]2(C)[C@H]2CC[C@]3(C)C(=CC[C@H]3[C@@H]3C[C@H]([C@@H]4OC4(C)C)OC3=O)[C@@]21C`, the figures for the concentration for half-maximal inhibition (IC50) in data set [1] (read-out: IC50) and in data set [2] were 5.3 µM and 0.44 µM, respectively. Further, the selectivity ratio in data set [3] came to 12.1.
In data set [1], `COc1cc([C@@H]2c3cc4c(cc3[C@H](O)[C@H]3COC(=O)[C@H]23)OCO4)cc(OC)c1OC` [PODOFILOX] had a half-maximal inhibitory concentration (IC50) of 0.012 µM.

(Values after ChEMBL document CHEMBL3580552, “Antiplasmodial and Cytotoxic Triterpenoids from the Bark of the Cameroonian Medicinal Plant Entandrophragma congoënse” (J Nat Prod, 2015).)
